Measured values taken from US20110092476A1, “Bicycloheteroaryl compounds as P2X7 modulators and uses thereof” (Renovis, Inc., priority 2006, published 2011).
Read-outs that look alike come from different tables or passages of the source.

Target: T1, P2X7 receptor (Homo sapiens, UniProt Q99572)
T1 construct: host or cells: THP-1 cells differentiated with LPS and IFN-γ
T1 sequence (Q99572 1-595): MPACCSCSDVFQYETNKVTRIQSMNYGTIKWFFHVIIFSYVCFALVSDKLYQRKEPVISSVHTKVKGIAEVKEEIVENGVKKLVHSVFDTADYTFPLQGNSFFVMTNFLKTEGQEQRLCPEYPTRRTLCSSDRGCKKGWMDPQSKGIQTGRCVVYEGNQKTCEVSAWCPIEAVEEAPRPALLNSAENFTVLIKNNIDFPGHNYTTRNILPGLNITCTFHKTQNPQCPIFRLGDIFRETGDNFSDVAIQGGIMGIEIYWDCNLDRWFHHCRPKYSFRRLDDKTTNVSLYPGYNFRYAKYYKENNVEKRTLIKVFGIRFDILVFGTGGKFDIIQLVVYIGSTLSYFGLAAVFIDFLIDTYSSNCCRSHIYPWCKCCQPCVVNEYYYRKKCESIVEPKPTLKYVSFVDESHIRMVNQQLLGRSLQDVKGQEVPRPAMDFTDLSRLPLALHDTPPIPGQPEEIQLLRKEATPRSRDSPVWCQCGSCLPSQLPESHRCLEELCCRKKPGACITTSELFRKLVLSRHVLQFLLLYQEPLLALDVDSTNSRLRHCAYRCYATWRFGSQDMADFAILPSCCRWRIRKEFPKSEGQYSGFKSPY
Assay: IL-1β release assay in differentiated THP-1 cells stimulated with BzATP (Example 9)
Assay type: cell-based
Conditions: differentiated THP-1 cells, BzATP 250 uM, read-out: IL-1β % Inhib. @ 0.3 or 0.1 uM
Method: THP-1 cells (ATCC Cat #285-IF-100) are plated in 96 well plates at a concentration of 200,000 cells per well and allowed to differentiate in RPMI-1640 media (ATCC Cat #30-2001) containing 10% FBS, 100 IU/mL penicillin, 100 ug/mL streptomycin, 100 ng/mL LPS and 100 ng/mL IFN-γ for 16 hours. Following differentiation, the cells are treated for an additional 2 hours in RPMI-1640 media containing 100 IU/mL penicillin, 100 ug/mL streptomycin and fresh LPS at 100 ng/mL. The cells are then pretreated for 30 minutes with the compound of interest at the appropriate concentration in RPMI media containing 100 IU/mL penicillin, 100 ug/mL streptomycin. Following the pretreatment 2′,3′-O-(4-benzoylbenzoyl)-adenosine 5′-triphosphate (Sigma Aldrich Cat #B6396) is added to a final concentration of 250 uM and the cells are incubated for an additional 45 minutes. 30 uL of cell supernatant is then collected and IL-1β levels determined via ELISA (R&D systems Cat. #HSLB50) according to manufacturer's recommendations using the Tecan Safire plate reader. Background adjusted IL-1β levels of drug treated and non-treated cells are used to calculate the percent inhibition.
The compounds set forth in Table 1 were tested for activity in a cellular model as described herein. Specifically, cells were pretreated with differing amounts of the compound under test and released IL-1β determined as in Example 9, above. Measurements were made and IC50 values, presented in Table 2, below, were determined by fitting the data to a four parameter logistic equation using GraphPad Prism software (GraphPad Software, Inc). The equation may be expressed by the following formula:
Y=Bottom+(Top−Bottom)/(1+10̂((Log EC50−X)*HillSlope))
Where X is the logarithm of concentration, Y is the response and Y starts at Bottom and goes to Top with a sigmoid shape.

Row | SMILES | inhibition at 0.3 µM (0.3 μM compound, "+" symbols) | inhibition at 0.1 µM (0.1 μM compound (symbols *)) | other results
1 | CC(C)[C@H](C(=O)NC1CC1)n1ccc2c(NC(=O)[C@@H](C)c3ccc(Cl)cc3)cccc2c1=O [Compound 281, (R)-2-{5-[(S)-2-(4-Chloro-phenyl)-propionylamino]-1-oxo-1H-isoquinolin-2-yl}-N-cyclopropyl-3-methyl-butyramide] | > 76% | – | –
2 | COc1ccc(CCC(=O)Nc2cccc3c(=O)n(CC4(O)CCCCC4)ccc23)cc1 [Compound 25] | – | – | inhibition at 0.3 µM (0.3 μM compound (symbols +)): 0 to 25%
3 | COc1ccc(OC)c(CC(=O)Nc2cccc3c(=O)n(C(C)CO)ccc23)c1 (centres unmarked) [Compound 108] | – | 0 to 25% | –
4 | Cc1cc(C)cc(CC(=O)Nc2cccc3c(=O)n(C(C)CO)ccc23)c1 (centres unmarked) [Compound 119] | – | 0 to 25% | –
5 | COc1ccc(CC(=O)Nc2cccc3c(=O)n(C(C)CO)ccc23)c(OC)c1 (centres unmarked) [Compound 120] | – | 0 to 25% | –
6 | O=C(Cc1ccc(Cl)c(C(F)(F)F)c1)Nc1cccc2c(=O)n(C[C@H]3CCCN3)ccc12 [Compound 243] | > 76% | – | –
7 | Cc1ccc(C(=O)Nc2cccc3c(=O)n(CC4(O)CCCCC4)ccc23)c(C)c1 [Compound 86] | – | 0 to 25% | –
8 | C[C@H](C(N)=O)n1ccc2c(NC(=O)Cc3ccc(Cl)cc3C(F)(F)F)cccc2c1=O [Compound 241] | > 76% | – | –
9 | CCOc1ccc(C(=O)Nc2cccc3c(=O)n(C(C)CO)ccc23)cc1 (centres unmarked) [Compound 101] | – | 0 to 25% | –
10 | Cc1ccc(C(=O)Nc2cccc3c(=O)n(CC(C)(C)O)ccc23)cc1Cl [Compound 220] | – | – | inhibition at 0.1 µM (0.1 μM compound, "*" symbols): 26 to 50%
11 | COc1ccc(CC(=O)Nc2cccc3c(=O)n(CC4(O)CCCCC4)ccc23)cc1 [Compound 33] | – | – | inhibition at 0.3 µM (0.3 μM compound (symbols +)): 0 to 25%
12 | CC(O)Cn1ccc2c(NC(=O)c3cc4cc(Cl)ccc4o3)cccc2c1=O (centres unmarked) [Compound 181] | – | 0 to 25% | –
13 | C[C@H](C(=O)Nc1cccc2c(=O)n(C(C(N)=O)c3ccc(Cl)cc3)ccc12)c1ccc(Cl)cc1 (stereo partly drawn) [Compound 315, (S)—N-{2-[Carbamoyl-(4-chloro-phenyl)-methyl]-1-oxo-1,2-dihydro-isoquinolin-5-yl}-2-(4-chloro-phenyl)-propionamide] | 51 to 75% | – | –
14 | O=C(Cc1ccc(Cl)cc1C(F)(F)F)Nc1cccc2c(=O)n(C(CO)CO)ccc12 [Compound 228] | 51 to 75% | – | –
15 | O=C(Cc1cc(C(F)(F)F)ccc1C(F)(F)F)Nc1cccc2c(=O)n(CCO)ccc12 [Compound 70] | – | – | inhibition at 0.3 µM (0.3 μM compound (symbols +)): 26 to 50%
16 | CC(CO)n1ccc2c(NC(=O)Cc3ccc4c(c3)OCO4)cccc2c1=O (centres unmarked) [Compound 113] | – | 0 to 25% | –
17 | Cc1cccc(CC(=O)Nc2cccc3c(=O)n(CC4(O)CCCCC4)ccc23)c1 [Compound 32] | – | – | inhibition at 0.3 µM (0.3 μM compound (symbols +)): 0 to 25%
18 | CC(C)(O)Cn1ccc2c(NC(=O)CCc3ccc4c(c3)OCO4)cccc2c1=O [Compound 195] | – | 0 to 25% | –
19 | CC(C(=O)Nc1cccc2c(=O)n(C(CO)CO)ccc12)c1ccc(Cl)cc1 (centres unmarked) [Compound 231] | 26 to 50% | – | –
20 | COc1cccc(CC(=O)Nc2cccc3c(=O)n(CC(C)O)ccc23)c1 (centres unmarked) [Compound 158] | – | 0 to 25% | –
21 | CC(CO)n1ccc2c(NC(=O)CCCc3ccccc3)cccc2c1=O (centres unmarked) [Compound 111] | – | 0 to 25% | –
22 | O=C(Cc1ccc(C(F)(F)F)cc1C(F)(F)F)Nc1cccc2c(=O)n(C(CO)CO)ccc12 [Compound 233] | 26 to 50% | – | –
23 | C[C@@H](CO)n1ccc2c(NC(=O)Cc3ccc(F)c(C(F)(F)F)c3)cccc2c1=O [Compound 338] | > 76% | – | –
24 | CC(C)(O)Cn1ccc2c(NC(=O)c3cccc4c3OCCO4)cccc2c1=O [Compound 222] | – | – | inhibition at 0.1 µM (0.1 μM compound, "*" symbols): 0 to 25%
25 | COc1ccccc1CC(=O)Nc1cccc2c(=O)n(CC3(O)CCCCC3)ccc12 [Compound 29] | – | – | inhibition at 0.3 µM (0.3 μM compound (symbols +)): 26 to 50%
26 | CC(C)(O)Cn1ccc2c(NC(=O)c3ccc(-c4ccccc4)o3)cccc2c1=O [Compound 188] | – | 0 to 25% | –
27 | COc1ccc(C(=O)Nc2cccc3c(=O)n(C(CO)CO)ccc23)c(OC)c1 [Compound 5] | – | – | inhibition at 0.3 µM (0.3 μM compound (symbols +)): 0 to 25%

Row | SMILES | inhibition at 0.3 µM (0.3 μM compound, "+" symbols) | inhibition at 0.1 µM (0.1 μM compound (symbols *)) | other results
28 | COc1ccc(CC(=O)Nc2cccc3c(=O)n(C(C)CO)ccc23)cc1 (centres unmarked) [Compound 110] | – | 0 to 25% | –
29 | CC(C)(O)Cn1ccc2c(NC(=O)c3ccc4ccccc4c3)cccc2c1=O [Compound 206] | – | – | inhibition at 0.1 µM (0.1 μM compound, "*" symbols): 0 to 25%
30 | CC(O)Cn1ccc2c(NC(=O)CCc3ccccc3Cl)cccc2c1=O (centres unmarked) [Compound 133] | – | 26 to 50% | –
31 | Cc1ccc(Cl)c(C(=O)Nc2cccc3c(=O)n(C(C)CO)ccc23)c1 (centres unmarked) [Compound 121] | – | 0 to 25% | –
32 | Cc1ccccc1CCC(=O)Nc1cccc2c(=O)n(CC3(O)CCCCC3)ccc12 [Compound 84] | – | 0 to 25% | –
33 | C[C@H](C(N)=O)n1ccc2c(NC(=O)Cc3cccc(Cl)c3)cccc2c1=O [Compound 255] | > 76% | – | –
34 | CC(O)Cn1ccc2c(NC(=O)c3ccc4c(c3)OCCCO4)cccc2c1=O (centres unmarked) [Compound 171] | – | 0 to 25% | –
35 | Cc1ccc(Cl)c(C(=O)Nc2cccc3c(=O)n(CC4(O)CCCCC4)ccc23)c1 [Compound 51] | – | – | inhibition at 0.3 µM (0.3 μM compound (symbols +)): 0 to 25%
36 | C[C@H](CO)n1ccc2c(NC(=O)Cc3ccc(C(F)(F)F)c(F)c3)c(C3CC3)ccc2c1=O [Compound 384, N-[6-Cyclopropyl-2-((R)-2-hydroxy-1-methyl-ethyl)-1-oxo-1,2-dihydro-isoquinolin-5-yl]-2-(3-fluoro-4-trifluoromethyl-phenyl)-acetamide] | > 76% | – | –
37 | NCC(CCl)Cn1ccc2c(NC(=O)Cc3ccc(Cl)c(C(F)(F)F)c3)cccc2c1=O (centres unmarked) [Compound 258, N-[2-(3-Amino-2-chloromethyl-propyl)-1-oxo-1,2-dihydro-isoquinolin-5-yl]-2-(4-chloro-3-trifluoromethyl-phenyl)-acetamide] | > 76% | – | –
38 | Cc1cc(C)cc(CC(=O)Nc2cccc3c(=O)n(CC(C)(C)O)ccc23)c1 [Compound 226] | – | – | inhibition at 0.1 µM (0.1 μM compound, "*" symbols): 0 to 25%
39 | O=C(Cc1ccc(C(F)(F)F)cc1)Nc1cccc2c1CCN(CCO)C2=O [Compound 60] | – | – | inhibition at 0.3 µM (0.3 μM compound (symbols +)): 26 to 50%
40 | CC(C)[C@H](C(=O)NC1CC1)n1ccc2c(NC(=O)[C@H](C)c3ccc(Cl)cc3)cccc2c1=O [Compound 282] | > 76% | – | –
41 | Cc1cc(C(=O)Nc2cccc3c(=O)n(CC(C)O)ccc23)ccc1Cl (centres unmarked) [Compound 135] | – | 0 to 25% | –
42 | CCOc1ccc(C(=O)Nc2cccc3c(=O)n(CC(C)O)ccc23)c(O)c1 (centres unmarked) [Compound 124] | – | 0 to 25% | –
43 | CC(C)(CO)n1ccc2c(NC(=O)Cc3ccc(Cl)c(Cl)c3)cccc2c1=O [Compound 371] | 51 to 75% | – | –
44 | CNC(=O)[C@@H](CO)n1ccc2c(NC(=O)C(C)c3ccc(Cl)cc3)cccc2c1=O (some centres unmarked) [Compound 261] | 51 to 75% | – | –
45 | O=C(Nc1cccc2c(=O)n(CC3(O)CCCCC3)ccc12)c1ccc2ccccc2c1 [Compound 27] | – | – | inhibition at 0.3 µM (0.3 μM compound (symbols +)): 0 to 25%
46 | COc1ccc(CC(=O)Nc2cccc3c(=O)n(CCO)ccc23)cc1 [Compound 2] | – | – | inhibition at 0.3 µM (0.3 μM compound (symbols +)): 0 to 25%
47 | COc1ccccc1CC(=O)Nc1cccc2c(=O)n(CC(C)O)ccc12 (centres unmarked) [Compound 155] | – | 0 to 25% | –
48 | CC(C)(CO)n1ccc2c(NC(=O)Cc3ccc(Cl)cc3F)cccc2c1=O [Compound 374] | > 76% | – | –
49 | COc1ccc(OC)c(CC(=O)Nc2cccc3c(=O)n(CC(C)O)ccc23)c1 (centres unmarked) [Compound 156] | – | 26 to 50% | –
50 | CC(C)(O)Cn1ccc2c(NC(=O)c3cccc4ccccc34)cccc2c1=O [Compound 204] | – | – | inhibition at 0.1 µM (0.1 μM compound, "*" symbols): 0 to 25%
51 | Cc1ccc(Cl)c(C(=O)Nc2cccc3c(=O)n(CC(C)O)ccc23)c1 (centres unmarked) [Compound 178] | – | 0 to 25% | –
52 | C[C@H](CO)n1ccc2c(NC(=O)Cc3ccc(F)c(Cl)c3)cccc2c1=O [Compound 329] | 51 to 75% | – | –
53 | COc1ccc(CC(=O)Nc2cccc3c(=O)n(CC(C)O)ccc23)cc1 (centres unmarked) [Compound 160] | – | 0 to 25% | –
